In assay [1] the test system is Axl phosphorylation in transiently transfected HEK293T cells. The assay is described as follows: Cellular Axl phosphorylation assay. Conditions: Homo sapiens, HEK-293T; HEK293T cells transfected with Axl, 1 hour compound treatment, Phospho-Axl vs Total-Axl. The class given is cell-based. From the text: Cell AXL Inhibition Assay Principle
The assay is based on the measurement of the relative amounts of Total-Axl and Phosphorylated-Axl in whole cell lysates of transiently transfected HEK293T cells. This assay is based on application of the Mesoscale western blot and subsequent electro-chemiluminescence detection. Overexpression of Axl-RTK (Receptor tyrosine kinase) by transfection leads to an increase in Axl-trans-autophosphorylation events. Upon compound treatment, the correlation of the measured values of Phosphorylated-Axl and Total Axl indicate the potential of the tested compound to inhibit Axl-phosphorylation at the given compound concentration.
Cell AXL Inhibition Assay Protocol
HEK293T cells (2.5×10^4/well) were plated in a 96 well plate and cells were transfected with pcDNA_DEST_40 Axl or pcDNA_DEST_40 by Superfact reagent (Qiagen. Co. Ltd.). After overnight, the transfection reagent of each well was removed from cells and replaced by fresh prewarmed medium. On the following day, cells were treated with the respective test compound which was diluted by the same method, as in the Axl binding assay using DMSO, for 1 hour
After incubation with the test compounds, cells in the well of the plate were lysed using Tris lysis buffer. The lysate was transferred to two plates (total-Axl and phosphor-Axl) Mesoscale high bind plates and incubated for two hours at room temperature. Afterwards the lysates were removed from the plates and the plates were blocked using Blocking buffer. Subsequently Total-Axl antibody (H-124, Santa Cruz) was transferred to one Mesoscale high bind plate, and Phospho-Axl antibody (AF2228, R&D) to the other plate. After 1 h incubation, Sulpho-Tag antibody (goat anti-rabbit, Mesoscale) was added and again incubated for 1 hour. For the measurement, 2×MSD read buffer was added to each well and the plates were analyzed with a Mesoscale Sector Imager 2400. IC50 (half the maximal inhibitory concentration) was determined relative to between the vehicle (DMSO) control group and minimum control group as transfection of the control vector (pcDNA_DEST_40).
The results after this assay are shown in table 3 for selected compounds.

Assay [2] addresses T1, TYRO3 (Homo sapiens, UniProt Q06418).
T1 construct: purchased Life Technologies
T1 sequence (Q06418 41-890): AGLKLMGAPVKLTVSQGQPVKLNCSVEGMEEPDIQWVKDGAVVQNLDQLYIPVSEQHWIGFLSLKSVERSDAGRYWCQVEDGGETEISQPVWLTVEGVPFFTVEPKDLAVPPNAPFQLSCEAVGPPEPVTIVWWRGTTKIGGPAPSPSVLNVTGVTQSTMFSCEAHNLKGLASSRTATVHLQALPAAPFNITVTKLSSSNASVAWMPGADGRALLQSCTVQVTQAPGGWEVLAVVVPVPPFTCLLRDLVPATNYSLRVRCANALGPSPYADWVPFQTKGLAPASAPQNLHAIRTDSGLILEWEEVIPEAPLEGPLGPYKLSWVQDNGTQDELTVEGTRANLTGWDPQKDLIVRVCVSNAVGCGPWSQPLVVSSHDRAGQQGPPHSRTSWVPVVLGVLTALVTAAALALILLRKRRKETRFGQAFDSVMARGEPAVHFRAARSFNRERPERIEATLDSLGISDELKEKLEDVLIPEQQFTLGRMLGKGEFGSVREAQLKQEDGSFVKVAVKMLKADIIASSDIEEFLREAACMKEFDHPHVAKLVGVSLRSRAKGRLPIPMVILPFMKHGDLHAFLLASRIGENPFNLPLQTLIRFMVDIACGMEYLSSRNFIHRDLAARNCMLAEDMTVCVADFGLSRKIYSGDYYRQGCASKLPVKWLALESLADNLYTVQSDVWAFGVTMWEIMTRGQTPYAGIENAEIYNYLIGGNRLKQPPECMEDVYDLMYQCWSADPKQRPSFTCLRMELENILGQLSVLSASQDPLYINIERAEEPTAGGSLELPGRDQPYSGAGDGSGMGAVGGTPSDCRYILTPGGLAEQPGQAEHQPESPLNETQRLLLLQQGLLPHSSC
In words: LanthaScreen Eu kinase binding assay, TYRO3. Conditions: Tracer 236. A general note: In TR-FRET formats the signal depends on donor and acceptor labels being close together.

These results are taken from US10934274B2, “Quinoline derivatives as TAM RTK inhibitors” (Qurient Co., Ltd., priority 2015, dated 2021).

`CCOc1cn(-c2nccnc2C(F)(F)F)nc1C(=O)Nc1ccc(Oc2ccnc3cc(OC)c(OC)cc23)cn1` [Compound 162] came in with a concentration for half-maximal inhibition (IC50) in assay [1] of under 100 nM. Moreover, the Kd in assay [2] is 100 to 1000 nM.
In assay [1], `CCOc1cn(-c2ncc(Cl)cc2C#N)nc1C(=O)Nc1ccc(Oc2ccnc3cc(OC)c(OC)cc23)cn1` [Compound 133] gave a 50% inhibitory concentration (IC50) of under 100 nM. This compound also gave a dissociation constant (Kd) in assay [2] of under 100 nM.
Compound `CCOc1cn(-c2cccnc2)nc1C(=O)Nc1ccc(Oc2ccnc3cc(OC)c(OC(F)(F)F)cc23)cn1` [Compound 199] showed a 50% inhibitory concentration (IC50) in assay [1] of under 100 nM. The compound also showed a dissociation constant Kd in assay [2] of at least 1000 nM.
On the same counts, the results for `CCOc1cn(-c2cnc(C)cn2)nc1C(=O)Nc1ccc(Oc2ccnc3cc(OC)c(OC)cc23)cn1` [Compound 160] are under 100 nM and at least 1000 nM.
Turning to `CCOc1cn(-c2noc(C)n2)nc1C(=O)Nc1ccc(Oc2ccnc3cc(OC)c(OC)cc23)cn1` [Compound 161], in assay [1], the IC50 is under 100 nM. In assay [2], this compound yielded an equilibrium dissociation constant (Kd) of under 100 nM.
For the compound `CCOc1cn(-c2cnccc2CO)nc1C(=O)Nc1ccc(Oc2ccnc3cc(OC)c(OC)cc23)c(F)c1` [Compound 207], the IC50 in assay [1] is under 100 nM. The compound further registered a Kd in assay [2] of under 100 nM.
Compound `CCOc1cn(-c2nccs2)nc1C(=O)Nc1ccc(Oc2ccnc3cc(OC)c(OC)cc23)cn1` [Compound 12] showed a half-inhibitory concentration (IC50) in assay [1] of under 100 nM. This compound registered a dissociation constant Kd in assay [2] of under 100 nM.
Consider `CCOc1cn(-c2cnccc2CO)nc1C(=O)Nc1ccc(Oc2ccnc3cc(OC)c(OC)cc23)cc1F` [Compound 209], for which the IC50 in assay [1] was under 100 nM. Further, the dissociation constant Kd in assay [2] is under 100 nM.
In turn, `CCOc1cn(-c2cncn2C)nc1C(=O)Nc1ccc(Oc2ccnc3cc(OC)c(OC)cc23)cn1` [Compound 11] had a 50% inhibitory concentration (IC50) in assay [1] of under 100 nM. Moreover, the dissociation constant Kd in assay [2] is 100 to 1000 nM.
The matching figures for `CCOc1cn(-c2cscn2)nc1C(=O)Nc1ccc(Oc2ccnc3cc(OC)c(OC)cc23)cn1` [Compound 13]: under 100 nM and under 100 nM.
The matching figures for `CCOc1cn(-c2cnccc2C(C)(O)CO)nc1C(=O)Nc1ccc(Oc2ccnc3cc(OC)c(OC)cc23)cn1` (stereo not shown) [Compound 205]: under 100 nM and under 100 nM.
`CCOc1cnn(-c2ccc(C(F)(F)F)cc2C)c1C(=O)Nc1ccc(Oc2ccnc3cc(OC)c(OC)cc23)cn1` [Compound 102] had an IC50 in assay [1] of under 100 nM. In addition, the equilibrium dissociation constant (Kd) in assay [2] fell in the range of 100 to 1000 nM.
Regarding `CCOc1cn(-c2cnccc2CCO)nc1C(=O)Nc1ccc(Oc2ccnc3cc(OC)c(OC)cc23)cn1` [Compound 181], in assay [1], the IC50 was under 100 nM. The compound also had a dissociation constant Kd in assay [2] of under 100 nM.
Turning to `CCOc1cn(-c2ccc(Cl)cc2CC)nc1C(=O)Nc1ccc(Oc2ccnc3cc(OC)c(OC)cc23)cn1` [Compound 111], the concentration for half-maximal inhibition (IC50) in assay [1] is under 100 nM. In assay [2], this compound yielded a Kd of under 100 nM.
The compound `CCOc1cn(-c2ccc(OC(F)(F)F)cc2Cl)nc1C(=O)Nc1ccc(Oc2ccnc3cc(OC)c(OC(F)(F)F)cc23)cn1` [Compound 201] yielded an IC50 in assay [1] of 100 to 1000 nM. This compound returned a Kd in assay [2] of at least 1000 nM.
The matching figures for `CCOc1cn(-c2ccc(F)cc2F)nc1C(=O)Nc1ccc(Oc2ccnc3cc(OC)c(OC)cc23)cn1` [Compound 107]: under 100 nM and under 100 nM.
The matching figures for `CCOc1cn(-c2cncs2)nc1C(=O)Nc1ccc(Oc2ccnc3cc(OC)c(OC)cc23)cn1` [Compound 14]: under 100 nM and under 100 nM.
As to `CCOc1cnn(-c2ccc(C(F)(F)F)cc2C(F)(F)F)c1C(=O)Nc1ccc(Oc2ccnc3cc(OC)c(OC)cc23)cn1` [Compound 110], the 50% inhibitory concentration (IC50) in assay [1] is under 100 nM. The compound further yielded a dissociation constant (Kd) in assay [2] of 100 to 1000 nM.
The matching figures for `CCOc1cn(-c2cnccc2Cl)nc1C(=O)Nc1ccc(Oc2ccnc3cc(OC)c(OC)cc23)cn1` [Compound 183]: under 100 nM and under 100 nM.
The matching figures for `CCOc1cn(-c2ccc(F)cc2C(F)(F)F)nc1C(=O)Nc1ccc(Oc2ccnc3cc(OC)c(OC)cc23)cn1` [Compound 104]: under 100 nM and under 100 nM.
`CCOc1cn(-c2ccc(F)cc2C(C)C)nc1C(=O)Nc1ccc(Oc2ccnc3cc(OC)c(OC)cc23)cn1` [Compound 125] returned an IC50 in assay [1] of under 100 nM. For the same compound, in assay [2], the equilibrium dissociation constant (Kd) is under 100 nM.
Consider `CCOc1cn(-c2ccc(C(F)(F)F)cc2F)nc1C(=O)Nc1ccc(Oc2ccnc3cc(OC)c(OC)cc23)cn1` [Compound 114], for which the concentration for half-maximal inhibition (IC50) in assay [1] was under 100 nM. Moreover, in assay [2], the Kd is at least 1000 nM.
As for `CCOc1cn(-c2cncnc2C2CC2)nc1C(=O)Nc1ccc(Oc2ccnc3cc(OC)c(OC)cc23)cn1` [Compound 167], in assay [1], the IC50 is under 100 nM. In assay [2], this compound returned a Kd of under 100 nM.
As for `CCOc1cn(-c2cnccc2C(C)=O)nc1C(=O)Nc1ccc(Oc2ccnc3cc(OC)c(OC)cc23)cn1` [Compound 182], the half-maximal inhibitory concentration (IC50) in assay [1] was under 100 nM. Besides, in assay [2], the equilibrium dissociation constant (Kd) was under 100 nM.
For the compound `CCOc1cn(-c2cnccc2C(C)(C)O)nc1C(=O)Nc1ccc(Oc2ccnc3cc(OC)c(OC)cc23)c(F)c1` [Compound 195], the half-inhibitory concentration (IC50) in assay [1] is under 100 nM. Further, in assay [2], the Kd is under 100 nM.
Turning to `CCOc1cn(-c2ccc(Cl)c(C(=O)N(C)C)c2)nc1C(=O)Nc1ccc(Oc2ccnc3cc(OC)c(OC)cc23)cn1` [Compound 129], in assay [1], the half-inhibitory concentration (IC50) is under 100 nM. In assay [2], this compound gave a Kd of at least 1000 nM.
Regarding `CCOc1cn(-c2cccnc2)nc1C(=O)Nc1ccc(Oc2ccnc3cc(OC(C)C)c(OC)cc23)cn1` [Compound 208], the half-inhibitory concentration (IC50) in assay [1] is under 100 nM. The dissociation constant (Kd) in assay [2] was 100 to 1000 nM.
On the same counts, the results for `CCOc1cn(-c2ccc(F)c(CO)c2)nc1C(=O)Nc1ccc(Oc2ccnc3cc(OC)c(OC)cc23)cn1` [Compound 128] are under 100 nM and under 100 nM.
The matching figures for `CCOc1cn(-c2cnccc2C(F)(F)F)nc1C(=O)Nc1ccc(Oc2ccnc3cc(OC)c(OC)cc23)cc1F` [Compound 196]: under 100 nM and under 100 nM.
The matching figures for `CCOc1cn(-c2ccc(C(F)(F)F)cc2C)nc1C(=O)Nc1ccc(Oc2ccnc3cc(OC)c(OC)cc23)cn1` [Compound 99]: under 100 nM and 100 to 1000 nM.
Consider `CCOc1cn(-c2cnccc2Cl)nc1C(=O)Nc1ccc(Oc2ccnc3cc(OC)c(OC)cc23)c(F)c1` [Compound 193], for which, in assay [1], the IC50 is under 100 nM. For the same compound, the equilibrium dissociation constant (Kd) in assay [2] is under 100 nM.
`CCOc1cn(-c2cnccc2C(F)(F)F)nc1C(=O)Nc1ccc(Oc2ccnc3cc(OC)c(OC)cc23)cn1` [Compound 170]: in assay [1], the IC50 was under 100 nM. For the same compound, the dissociation constant (Kd) in assay [2] is under 100 nM.
Compound `CCOc1cn(-c2ccc(OC(F)(F)F)cc2F)nc1C(=O)Nc1ccc(Oc2ccnc3cc(OC)c(OC)cc23)cn1` [Compound 120] had a 50% inhibitory concentration (IC50) in assay [1] of under 100 nM. For the same compound, the Kd in assay [2] was at least 1000 nM.
Take `CCOc1cn(-c2c(C)ccnc2C)nc1C(=O)Nc1ccc(Oc2ccnc3cc(OC)c(OC)cc23)c(F)c1` [Compound 188]: in assay [1], the IC50 was under 100 nM. In assay [2], this compound came in with a dissociation constant Kd of under 100 nM.
In turn, `CCOc1cnn(-c2ccc(Cl)c(CN(C)C)c2)c1C(=O)Nc1ccc(Oc2ccnc3cc(OC)c(OC)cc23)cn1` [Compound 130] registered an IC50 in assay [1] of under 100 nM. Also, in assay [2], the dissociation constant Kd fell in the range of 100 to 1000 nM.
Take `CCOc1cn(-c2cnccc2C(C)(C)O)nc1C(=O)Nc1ccc(Oc2ccnc3cc(OC)c(OC)cc23)cc1F` [Compound 197]: the 50% inhibitory concentration (IC50) in assay [1] was under 100 nM. Also, the Kd in assay [2] is under 100 nM.
For `CCOc1cn(-c2nccnc2C(C)(C)O)nc1C(=O)Nc1ccc(Oc2ccnc3cc(OC)c(OC)cc23)cn1` [Compound 200], the IC50 in assay [1] is under 100 nM. Moreover, in assay [2], the Kd is under 100 nM.
The compound `CCOc1cn(-c2cnc(Cl)cn2)nc1C(=O)Nc1ccc(Oc2ccnc3cc(OC)c(OC)cc23)cn1` [Compound 169] gave an IC50 in assay [1] of under 100 nM. In addition, the Kd in assay [2] was at least 1000 nM.

What is called IC50 is the concentration needed to halve the response being measured. A low value points to greater potency. By Kd is commonly meant the equilibrium constant for the complex coming apart. A high value points to lower affinity.
